Type in all cases: biochemical
Holding throughout (settings): Enzymatic Data

One assay has as its target T1, PI3K beta (Homo sapiens, UniProt P42338).
T1 construct: for the full-length p110-b subunit are generated and fused by overlapping PCR; p85(iSH2) fusion partner (same polypeptide; see partner chain) (N); Gly linker (N); His tag (C); made in house; host or cells: baculovirus; Tn5 (Trichoplusia ni) or TiniPro insect cells
Briefly: PI3K beta enzymatic assay (Kinase-Glo luminescence). On the procedure: (§1) In a more preferred assay, the kinase reaction is performed in a final volume of 10 μL per well of a low volume non binding CORNING, 384 well black plate (Cat. No. #3676). The final concentrations of ATP and phosphatidyl inositol (PI) in the assay are 1 μM and 10 μg/mL respectively. The reaction is started by the addition of ATP.
(§2) The components of the assay are added per well as follows:
(§3) 50 nL test compounds in 90% DMSO per well, in columns 1-20, 8 concentrations (⅓ and 1/3.33 serial dilution step) in single. • Low control: 50 nL of 90% DMSO in half the wells of columns 23-24 (0.45% in final). • High control: 50 nL of reference compound (e.g. compound of Example 7 in WO 2006/122806, incorporated by reference herein that regard) in the other half of columns 23-24 (2.5 μM in final). • Standard: 50 nL of reference compound as just mentioned diluted as the test compounds in columns 21-22 • 20 mL ‘buffer’ are prepared per assay: • 200 μL of 1M TRIS HCl pH7.5 (10 mM in final) • 60 μL of 1M MgCl2 (3 mM in final) • 500 μL of 2M NaCl (50 mM in final) • 100 μL of 10% CHAPS (0.05% in final) • 200 μL of 100 mM DTT (1 mM in final) • 18.94 mL of nanopure water • 10 mL ‘PI’ are prepared per assay: • 200 μL of 1 mg/ml L-alpha-Phosphatidylinositol (Liver Bovine, Avanti Polar Lipids Cat. No. 840042C MW=909.12) prepared in 3% OctylGlucoside ([…]) • 9.8 mL of ‘buffer’ • 10 mL ‘ATP’ are prepared per assay: • 6.7 μL of 3 mM stock of ATP giving a final concentration of 1 μM per well • 10 mL of ‘buffer’ • 2.5 mL of each PI3K construct are prepared per assay in ‘PI’ with the following final concentration: • 10 nM PI3K alfa BV-1075 • 25 nM beta BV-949 • 10 nM delta BV-1060 • 150 nM gamma BV-950 • 5 μL of ‘PI/PI3K’ are added per well. • 5 μl ‘ATP’ are added per well to start the reaction. • The plates are then incubated at room temperature for 60 minutes (alfa, beta, delta) or 120 minutes (gamma). • The reaction is terminated by the addition of 10 μL Kinase-Glo (Promega Cat. No. #6714). • The assay plates are read after 10 minutes in Synergy 2 reader (BioTek, Vermont USA) with an integration time of 100 milliseconds and sensitivity set to 191. • Output: The High control is around 60′000 counts and the Low control is 30′000 or lower • This luminescence assay gives a useful Z′ ratio between 0.4 and 0.7 The Z′ value is a universal measurement of the robustness of an assay. A Z′ between 0.5 and 1.0 is considered an excellent assay.
PI3Kβ BV-949 p85(iSH2)-Gly linker-p110b (Full-Length)-C-Term His Tag
(§4) IC50 is determined by a four parameter curve fitting routine that comes aloneg with “excel fit”. A 4 Parameter logistic equation is used to calculate IC50 values (IDBS XLfit) of the percentage inhibition of each compound at 8 concentrations (usually 10, 3.0, 1.0, 0.3, 0.1, 0.030, 0.010 and 0.003 μM). Alternatively, IC50 values are calculated using idbsXLfit model 204, which is a 4 parameter logistic model.

In another assay the target is T2, PI3K alfa (Homo sapiens, UniProt P42336).
T2 construct: p85(iSH2) fusion partner (same polypeptide; see partner chain) (N); 12x Gly linker (N); His tag (C); made in house; host or cells: baculovirus; Tn5 (Trichoplusia ni) or TiniPro insect cells
Put plainly: PI3K alfa enzymatic assay (Kinase-Glo luminescence). The method, then:
as §1, §2, §3, §4

In another assay the target is T3, PI3K delta (Homo sapiens, UniProt O00329).
T3 construct: for the full-length p110-d subunit are generated and fused by overlapping PCR; p85(iSH2) fusion partner (same polypeptide; see partner chain) (N); Gly linker (N); His tag (C); made in house; host or cells: baculovirus; Tn5 (Trichoplusia ni) or TiniPro insect cells
Put plainly: PI3K delta enzymatic assay (Kinase-Glo luminescence). On the procedure:
as §1, §2, §3
PI3Kδ BV-1060 p85(iSH2)-Gly Linker-p110d (Full-Length)-C-term His Tact
as §4
Background: Kinase-Glo reads ATP consumption through a luciferase reaction.

The target of another assay is T4, PI3K gamma (Homo sapiens, UniProt P48736).
T4 construct: His tag (C); made in house; host or cells: construct from Roger Williams lab (MRC LMB); baculovirus (pVL1393); Tn5 (Trichoplusia ni) or TiniPro insect cells
Briefly: PI3K gamma enzymatic assay (Kinase-Glo luminescence). The method, then:
as §1, §2, §3, §4

T3 sequence (O00329 with tags, fused parts or gaps limits assumed): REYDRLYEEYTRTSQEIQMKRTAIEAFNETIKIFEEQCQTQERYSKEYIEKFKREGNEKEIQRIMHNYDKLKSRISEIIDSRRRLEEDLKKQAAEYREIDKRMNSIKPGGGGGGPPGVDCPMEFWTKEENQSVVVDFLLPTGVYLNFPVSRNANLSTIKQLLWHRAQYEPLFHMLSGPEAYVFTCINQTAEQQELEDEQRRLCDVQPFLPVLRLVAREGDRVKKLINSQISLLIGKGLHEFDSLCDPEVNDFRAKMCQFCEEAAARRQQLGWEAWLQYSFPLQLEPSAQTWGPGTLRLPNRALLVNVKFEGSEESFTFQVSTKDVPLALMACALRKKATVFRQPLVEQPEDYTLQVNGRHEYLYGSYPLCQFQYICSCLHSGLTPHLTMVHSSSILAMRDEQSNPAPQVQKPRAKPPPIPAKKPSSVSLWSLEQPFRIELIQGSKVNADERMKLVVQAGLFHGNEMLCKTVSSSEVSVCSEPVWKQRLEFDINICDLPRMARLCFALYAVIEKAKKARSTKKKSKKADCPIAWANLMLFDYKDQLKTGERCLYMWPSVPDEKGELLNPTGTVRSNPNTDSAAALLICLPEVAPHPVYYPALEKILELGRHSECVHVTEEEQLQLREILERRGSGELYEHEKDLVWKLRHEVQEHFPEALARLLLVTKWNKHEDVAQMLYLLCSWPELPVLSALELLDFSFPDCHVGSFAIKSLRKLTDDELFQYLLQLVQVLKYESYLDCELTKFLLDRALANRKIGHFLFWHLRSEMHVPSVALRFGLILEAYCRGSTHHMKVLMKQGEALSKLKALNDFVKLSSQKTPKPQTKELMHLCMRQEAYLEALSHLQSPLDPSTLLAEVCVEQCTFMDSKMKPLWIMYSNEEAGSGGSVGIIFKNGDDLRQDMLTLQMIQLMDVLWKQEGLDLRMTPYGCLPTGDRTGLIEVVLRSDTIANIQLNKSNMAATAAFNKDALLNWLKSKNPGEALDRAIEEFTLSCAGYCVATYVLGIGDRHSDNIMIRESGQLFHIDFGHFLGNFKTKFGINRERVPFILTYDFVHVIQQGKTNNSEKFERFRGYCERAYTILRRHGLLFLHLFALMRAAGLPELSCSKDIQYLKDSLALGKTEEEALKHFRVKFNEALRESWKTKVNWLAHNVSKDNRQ
T2 sequence (P42336 with tags, fused parts or gaps limits assumed): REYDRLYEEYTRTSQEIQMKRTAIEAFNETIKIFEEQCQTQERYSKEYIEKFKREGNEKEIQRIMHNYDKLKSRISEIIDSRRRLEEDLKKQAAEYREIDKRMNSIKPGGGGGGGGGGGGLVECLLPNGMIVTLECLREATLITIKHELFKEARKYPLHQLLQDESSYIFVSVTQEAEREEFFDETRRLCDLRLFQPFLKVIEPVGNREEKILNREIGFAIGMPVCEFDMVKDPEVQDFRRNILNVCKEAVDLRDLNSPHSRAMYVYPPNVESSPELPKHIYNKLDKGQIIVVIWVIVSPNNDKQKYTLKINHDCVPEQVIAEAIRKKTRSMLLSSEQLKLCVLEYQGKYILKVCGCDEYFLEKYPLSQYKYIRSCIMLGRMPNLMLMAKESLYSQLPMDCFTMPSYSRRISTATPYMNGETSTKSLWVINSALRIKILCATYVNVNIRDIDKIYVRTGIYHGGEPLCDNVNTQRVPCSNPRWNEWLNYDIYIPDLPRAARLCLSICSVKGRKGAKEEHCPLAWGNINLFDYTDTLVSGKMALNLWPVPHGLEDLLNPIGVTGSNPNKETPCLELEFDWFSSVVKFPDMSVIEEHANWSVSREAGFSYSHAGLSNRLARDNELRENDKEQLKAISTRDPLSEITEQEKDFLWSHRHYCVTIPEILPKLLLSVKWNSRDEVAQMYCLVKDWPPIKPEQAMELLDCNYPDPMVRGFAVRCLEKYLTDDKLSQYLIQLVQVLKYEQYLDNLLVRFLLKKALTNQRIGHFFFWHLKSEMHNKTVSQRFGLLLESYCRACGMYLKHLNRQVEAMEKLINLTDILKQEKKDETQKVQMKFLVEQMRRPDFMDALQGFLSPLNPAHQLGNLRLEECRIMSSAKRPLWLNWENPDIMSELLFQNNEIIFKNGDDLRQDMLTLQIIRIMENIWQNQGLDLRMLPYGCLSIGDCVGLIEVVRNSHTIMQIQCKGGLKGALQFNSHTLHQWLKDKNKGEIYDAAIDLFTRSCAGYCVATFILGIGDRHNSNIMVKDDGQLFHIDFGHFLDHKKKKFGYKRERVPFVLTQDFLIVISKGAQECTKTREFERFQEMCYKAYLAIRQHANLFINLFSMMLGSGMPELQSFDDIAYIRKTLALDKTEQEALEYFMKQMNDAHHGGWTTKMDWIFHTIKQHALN
T1 sequence (P42338 with tags, fused parts or gaps limits assumed): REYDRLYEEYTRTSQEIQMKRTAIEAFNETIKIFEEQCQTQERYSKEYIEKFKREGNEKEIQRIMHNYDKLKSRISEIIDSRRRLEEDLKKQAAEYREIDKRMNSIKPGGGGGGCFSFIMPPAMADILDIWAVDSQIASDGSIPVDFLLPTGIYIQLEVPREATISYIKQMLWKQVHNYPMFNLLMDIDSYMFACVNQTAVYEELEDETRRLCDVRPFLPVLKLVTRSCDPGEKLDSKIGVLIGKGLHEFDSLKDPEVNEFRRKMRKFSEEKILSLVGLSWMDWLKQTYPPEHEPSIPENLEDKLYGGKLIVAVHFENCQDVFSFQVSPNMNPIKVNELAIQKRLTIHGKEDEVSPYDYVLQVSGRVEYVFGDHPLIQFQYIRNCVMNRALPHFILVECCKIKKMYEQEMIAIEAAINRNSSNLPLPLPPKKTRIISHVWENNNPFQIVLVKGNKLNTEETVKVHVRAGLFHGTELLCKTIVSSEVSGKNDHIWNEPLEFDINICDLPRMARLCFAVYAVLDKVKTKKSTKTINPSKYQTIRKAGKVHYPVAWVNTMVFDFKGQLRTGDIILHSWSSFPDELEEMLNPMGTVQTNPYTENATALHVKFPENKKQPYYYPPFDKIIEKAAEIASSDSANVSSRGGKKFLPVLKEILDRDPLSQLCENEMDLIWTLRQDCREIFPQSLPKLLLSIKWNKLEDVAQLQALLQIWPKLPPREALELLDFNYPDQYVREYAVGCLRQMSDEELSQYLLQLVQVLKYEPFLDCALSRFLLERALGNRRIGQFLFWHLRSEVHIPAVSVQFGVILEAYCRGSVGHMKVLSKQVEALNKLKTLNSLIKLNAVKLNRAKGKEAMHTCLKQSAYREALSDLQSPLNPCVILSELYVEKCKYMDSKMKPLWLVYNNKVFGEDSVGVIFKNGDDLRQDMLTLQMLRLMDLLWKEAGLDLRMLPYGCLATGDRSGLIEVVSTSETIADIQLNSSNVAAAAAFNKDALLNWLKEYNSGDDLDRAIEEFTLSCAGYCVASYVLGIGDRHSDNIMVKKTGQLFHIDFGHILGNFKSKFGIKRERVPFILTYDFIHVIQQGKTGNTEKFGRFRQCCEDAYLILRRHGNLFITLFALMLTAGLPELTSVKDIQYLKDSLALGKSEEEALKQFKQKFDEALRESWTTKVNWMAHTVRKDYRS
T4 sequence (P48736 144-1102 limits assumed): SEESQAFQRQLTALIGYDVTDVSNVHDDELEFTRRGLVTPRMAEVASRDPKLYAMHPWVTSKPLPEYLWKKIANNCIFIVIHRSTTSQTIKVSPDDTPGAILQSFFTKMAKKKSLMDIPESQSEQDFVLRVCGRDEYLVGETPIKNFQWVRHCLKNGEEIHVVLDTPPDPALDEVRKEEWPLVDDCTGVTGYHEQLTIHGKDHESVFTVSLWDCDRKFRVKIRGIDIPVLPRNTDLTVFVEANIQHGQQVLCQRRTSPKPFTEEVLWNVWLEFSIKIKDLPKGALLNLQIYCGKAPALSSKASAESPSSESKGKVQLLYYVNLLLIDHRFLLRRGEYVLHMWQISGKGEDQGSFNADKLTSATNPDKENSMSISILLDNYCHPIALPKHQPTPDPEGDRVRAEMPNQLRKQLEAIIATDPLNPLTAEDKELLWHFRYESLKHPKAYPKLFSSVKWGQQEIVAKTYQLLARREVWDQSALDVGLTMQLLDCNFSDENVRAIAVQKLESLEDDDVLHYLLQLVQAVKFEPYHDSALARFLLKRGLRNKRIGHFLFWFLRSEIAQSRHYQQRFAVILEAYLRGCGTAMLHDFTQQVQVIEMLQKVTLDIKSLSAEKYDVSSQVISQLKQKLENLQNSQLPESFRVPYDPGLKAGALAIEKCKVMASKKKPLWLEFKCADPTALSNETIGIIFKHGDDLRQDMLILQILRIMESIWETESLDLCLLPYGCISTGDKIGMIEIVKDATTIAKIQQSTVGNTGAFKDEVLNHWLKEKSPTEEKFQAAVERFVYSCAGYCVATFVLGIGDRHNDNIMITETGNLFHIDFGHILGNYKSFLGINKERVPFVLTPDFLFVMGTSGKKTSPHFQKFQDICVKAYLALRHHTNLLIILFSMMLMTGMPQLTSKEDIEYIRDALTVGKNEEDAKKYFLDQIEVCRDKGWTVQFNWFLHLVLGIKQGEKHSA

Regarding `COc1ccc(-c2ccc3nc(C)c(-c4ccn(S(=O)(=O)c5ccc(C#N)cc5)n4)n3n2)cc1OC` [Example 21, 4-{3-[6-(3,4-Dimethoxy-phenyl)-2-methyl-imidazo[1,2-b]pyridazin-3-yl]-pyrazole-1-sulfonyl}-benzonitrile], the half-inhibitory concentration (IC50) (in general, the concentration that gives 50% inhibition) on PI3K beta was > 9100 nM; on PI3K alfa, 408 nM; at PI3K delta it was 406 nM; on PI3K gamma, 655 nM.
For the compound `Cc1nc2ccc(-c3ccc4c(c3)OCO4)nn2c1-c1cnc(N)c(C(F)(F)F)c1` [Example 108, 5-(6-Benzo[1,3]dioxol-5-yl-2-methyl-imidazo[1,2-b]pyridazin-3-yl)-3-trifluoromethyl-pyridin-2-ylamine], the IC50 on PI3K beta is 7080 nM; on PI3K alfa, 985 nM; at PI3K delta it was 2270 nM; at PI3K gamma, 6790 nM.
In the same order, the values of `CCS(=O)(=O)c1ccc(-c2c(C)nc3ccc(-c4ccc(OC5CCNCC5)c(OC)c4)nn23)cc1` [Example 102, 3-(4-Ethanesulfonyl-phenyl)-6-[3-methoxy-4-(piperidin-4-yloxy)-phenyl]-2-methyl-imidazo[1,2-b]pyridazine] are > 9100 nM, 2990 nM, 2560 nM and > 9100 nM.
`COc1cc(-c2ccc3nc(C)c(-c4cnc(N)c(C(F)(F)F)c4)n3n2)ccc1OCCNC(=O)OC(C)C` [Example 79]: the IC50 is > 9100 nM on PI3K beta, 99 nM on PI3K alfa, 2040 nM at PI3K delta and 648 nM at PI3K gamma.
For the compound `COc1cc(-c2ccc3nc(C)c(-c4cnc(N)c(C(F)(F)F)c4)n3n2)ccc1OCCCN1CCNC1=O` [Example 96, 1-(3-{4-[3-(6-Amino-5-trifluoromethyl-pyridin-3-yl)-2-methyl-imidazo[1,2-b]pyridazin-6-yl]-2-methoxy-phenoxy}-propyl)-imidazolidin-2-one], the half-inhibitory concentration (IC50) at PI3K beta worked out at 4860 nM; on PI3K alfa it was 31 nM; at PI3K delta, 424 nM; on PI3K gamma, 805 nM.
For `COc1cc(-c2ccc3nc(C)c(-c4cnc(N)c(C(F)(F)F)c4)n3n2)ccc1OCCNC(=O)Nc1cccc(C(F)(F)F)c1` [Example 93, 1-(2-{4-[3-(6-Amino-5-trifluoromethyl-pyridin-3-yl)-2-methyl-imidazo[1,2-b]pyridazin-6-yl]-2-methoxy-phenoxy}-ethyl)-3-(3-trifluoromethyl-phenyl)-urea], the half-maximal inhibitory concentration (IC50) on PI3K beta was > 9100 nM; on PI3K alfa, 2320 nM; on PI3K delta, 4130 nM; on PI3K gamma it was 3310 nM.
Taken in the same sequence, the figures for `COc1ccc(-c2ccc(-c3ccc4nc(C)c(-c5ccc(N6CCOCC6)nc5)n4n3)cc2)cc1` [Example 18, 6-(4′-Methoxy-biphenyl-4-yl)-2-methyl-3-(6-morpholin-4-yl-pyridin-3-yl)-imidazo[1,2-b]pyridazine] were 5160 nM, > 25000 nM, > 25000 nM and > 25000 nM.
Taken in the same sequence, the figures for `Cc1nc2ccc(-c3ccc(OCC4(NC(=O)OC(C)(C)C)COC4)cc3)nn2c1-c1cnc(N)c(C(F)(F)F)c1` [Example 113, (3-{4-[3-(6-Amino-5-trifluoromethyl-pyridin-3-yl)-2-methyl-imidazo[1,2-b]pyridazin-6-yl]-phenoxymethyl}-oxetan-3-yl)-carbamic acid tert-butyl ester] were > 9100 nM, 1010 nM, 5110 nM and > 9100 nM.
Taken in the same sequence, the figures for `COc1cc(-c2ccc3nc(C)c(-c4cnc(N)c(C(F)(F)F)c4)n3n2)ccc1OCCNC(=O)c1cccnc1` [Example 31] were > 9100 nM, 38 nM, 748 nM and 4320 nM.
On to `COc1ccc(S(=O)(=O)n2ccc(-c3c(C)nc4ccc(-c5ccc(OC)c(OC)c5)nn34)n2)cc1` [Example 22, 6-(3,4-Dimethoxy-phenyl)-3-[1-(4-methoxy-benzenesulfonyl)-1H-pyrazol-3-yl]-2-methyl-imidazo[1,2-b]pyridazine], for which the half-inhibitory concentration (IC50) was > 9100 nM at PI3K beta, 781 nM on PI3K alfa, 889 nM at PI3K delta and 1500 nM at PI3K gamma.
In the same order, the values of `COc1ccc(C(=O)NCCOc2ccc(-c3ccc4nc(C)c(-c5cnc(N)c(C(F)(F)F)c5)n4n3)cc2OC)cc1OC` [Example 37] are > 9100 nM, 233 nM, > 9100 nM and 2300 nM.
In the same order, the values of `COc1cc(-c2ccc3nc(C)c(-c4cnc(N)c(C(F)(F)F)c4)n3n2)ccc1OCCNC(=O)Nc1cc(OC)c(OC)c(OC)c1` [Example 61] are > 9100 nM, 242 nM, 2710 nM and 194 nM.
For `CCS(=O)(=O)c1ccc(-c2c(C)nc3ccc(-c4ccc(OC5CCN(C(=O)OC(C)(C)C)CC5)c(OC)c4)nn23)cc1` [Example 99, 4-{4-[3-(4-Ethanesulfonyl-phenyl)-2-methyl-imidazo[1,2-b]pyridazin-6-yl]-2-methoxy-phenoxy}-piperidine-1-carboxylic acid tert-butyl ester], the IC50 on PI3K beta, at PI3K alfa, on PI3K delta and at PI3K gamma was > 9100 nM in each case.
For the compound `COc1ccc(-c2ccc3nc(C)c(-c4cncc(C#N)c4)n3n2)cc1OC` [Example 6], the IC50 at PI3K beta amounted to 4190 nM; at PI3K alfa, 455 nM; at PI3K delta, 2710 nM; on PI3K gamma, 1850 nM.
In the same order, the values of `COc1cc(-c2ccc3nc(C)c(-c4cnc(N)c(C(F)(F)F)c4)n3n2)ccc1OCCNC(=O)c1ccc(OC)c(OC)c1OC` [Example 95, N-(2-{4-[3-(6-Amino-5-trifluoromethyl-pyridin-3-yl)-2-methyl-imidazo[1,2-b]pyridazin-6-yl]-2-methoxy-phenoxy}-ethyl)-2,3,4-trimethoxy-benzamide] are > 9100 nM, 245 nM, 5370 nM and 4740 nM.
In the same order, the values of `CCS(=O)(=O)c1ccc(-c2c(C)nc3ccc(-c4ccc(OCCCN5CCCC5=O)cc4)nn23)cc1` [Example 107, 1-(3-{4-[3-(4-Ethanesulfonyl-phenyl)-2-methyl-imidazo[1,2-b]pyridazin-6-yl]-phenoxy}-propyl)-pyrrolidin-2-one] are > 9100 nM, 4690 nM, 2990 nM and > 9100 nM.
With `COc1cc(-c2ccc3nc(C)c(-c4cnc(N)c(C(F)(F)F)c4)n3n2)ccc1OCCCNC(=O)OC(C)C` [Example 80], the half-inhibitory concentration (IC50) on PI3K beta was > 9100 nM; on PI3K alfa, 175 nM; on PI3K delta, 2700 nM; at PI3K gamma, 1930 nM.
